Source: ChEMBL document CHEMBL3351488, “Design, synthesis and biological evaluation of novel arylpiperazine derivatives on human prostate cancer cell lines” (Bioorg Med Chem Lett, 2015)

What was measured:
[1] = system: DU-145; experiment: Cytotoxicity against human DU145 cells assessed as inhibition of cell viability after 24 hrs by CCK-8 assay; assay type: functional, cell-based; conditions: DU-145, 24 h
[2] = Cytotoxicity against human PC3 cells assessed as inhibition of cell viability after 24 hrs by CCK-8 assay; assay type: functional, cell-based; conditions: PC-3, 24 h
[3] = Cytotoxicity against human RWPE1 cells assessed as inhibition of cell viability after 24 hrs by CCK-8 assay; assay type: cell-based; conditions: RWPE-1, 24 h
[4] = system: LNCaP; experiment: Cytotoxicity against human LNCAP cells assessed as inhibition of cell viability after 24 hrs by CCK-8 assay; assay type: functional, cell-based

SMILES	IC50 [1]	IC50 [2]	IC50 [3]	IC50 [4]
COc1cc(OC)cc(OCc2ccc(CCN3CCN(c4ccc(Cl)cc4)CC3)cc2)c1	12.7 µM	18.9 µM	> 50 µM	> 50 µM
COc1cc(OC)cc(OCc2ccc(CCN3CCN(c4ccccc4C)CC3)cc2)c1	19.3 µM	30.2 µM	35.6 µM	35.8 µM
COc1cc(OC)cc(OCc2ccc(CCN3CCN(c4ccc(C)cc4)CC3)cc2)c1	24.1 µM	48.2 µM	> 50 µM	35.2 µM
COc1cc(OC)cc(OCc2ccc(CCN3CCN(c4cc(Cl)ccc4C)CC3)cc2)c1	28 µM	32.2 µM	36.5 µM	2.73 µM
CCOc1ccccc1N1CCN(CCc2ccc(COc3cc(OC)cc(OC)c3)cc2)CC1	27.2 µM	27.1 µM	> 50 µM	> 50 µM
COc1ccccc1N1CCN(CC(O)COc2cccc3ccccc23)CC1 (centres undefined) [NAFTOPIDIL]	34.6 µM	42.1 µM	> 50 µM	22.4 µM
COc1cc(OC)cc(OCc2ccc(CCN3CCN(c4ccc(C(F)(F)F)cc4)CC3)cc2)c1	28.5 µM	23.8 µM	> 50 µM	> 50 µM
COc1cc(OC)cc(OCc2ccc(CCN3CCN(c4ccccc4Cl)CC3)cc2)c1	23.2 µM	25.2 µM	> 50 µM	32.5 µM
COc1cc(OC)cc(OCc2ccc(CCN3CCN(c4ccc(C#N)cc4)CC3)cc2)c1	46.3 µM	27.6 µM	45.8 µM	> 50 µM
COc1cc(OC)cc(OCc2ccc(CCN3CCN(c4cccc(OC)c4)CC3)cc2)c1	16.9 µM	25.3 µM	39.9 µM	20 µM
COc1cc(OC)cc(OCc2ccc(CCN3CCN(Cc4ccccc4)CC3)cc2)c1	5.83 µM	6.79 µM	> 50 µM	6.07 µM
COc1cc(OC)cc(OCc2ccc(CCN3CCN(c4ccccc4C(F)(F)F)CC3)cc2)c1	39.2 µM	40.3 µM	> 50 µM	> 50 µM
COc1cc(OC)cc(OCc2ccc(CCN3CCN(c4cccc(Cl)c4Cl)CC3)cc2)c1	30.2 µM	18.4 µM	36.6 µM	> 50 µM
COc1cc(OC)cc(OCc2ccc(CCN3CCN(c4ccccc4)CC3)cc2)c1	25 µM	31.2 µM	> 50 µM	> 50 µM
COc1ccc(N2CCN(CCc3ccc(COc4cc(OC)cc(OC)c4)cc3)CC2)cc1	19.2 µM	32.9 µM	> 50 µM	> 50 µM
COc1cc(OC)cc(OCc2ccc(CCN3CCN(c4ccc(F)cc4F)CC3)cc2)c1	24.2 µM	35.4 µM	> 50 µM	> 50 µM
COc1cc(OC)cc(OCc2ccc(CCN3CCN(c4ccccc4F)CC3)cc2)c1	25.4 µM	25.3 µM	35.4 µM	7.25 µM
COc1cc(OC)cc(OCc2ccc(CCN3CCN(c4cccc(Cl)c4)CC3)cc2)c1	27.1 µM	30.9 µM	> 50 µM	36.6 µM
COc1cc(OC)cc(OCc2ccc(CCN3CCN(c4ccccc4OC)CC3)cc2)c1	30.5 µM	26.5 µM	28.8 µM	26.3 µM
COc1cc(OC)cc(OCc2ccc(CCN3CCN(c4ccc(Br)cc4)CC3)cc2)c1	29.5 µM	25.6 µM	> 50 µM	> 50 µM
COc1cc(OC)cc(OCc2ccc(CCN3CCN(c4cc(C)ccc4C)CC3)cc2)c1	27.6 µM	31 µM	> 50 µM	36.1 µM
COc1cc(OC)cc(OCc2ccc(CCN3CCN(c4ccccc4S(C)(=O)=O)CC3)cc2)c1	7.68 µM	9.42 µM	> 50 µM	0.97 µM
COc1cc(OC)cc(OCc2ccc(CCN3CCN(c4ccccn4)CC3)cc2)c1	16.8 µM	25.6 µM	> 50 µM	42.3 µM
COc1cc(OC)cc(OCc2ccc(CCN3CCN(c4ccc(F)cc4)CC3)cc2)c1	28.2 µM	28.8 µM	> 50 µM	35 µM
COc1cc(OC)cc(OCc2ccc(CCN3CCN(c4cc(Cl)ccc4OC)CC3)cc2)c1	26.7 µM	27.1 µM	> 50 µM	39.8 µM
COc1cc(OC)cc(OCc2ccc(CCN3CCN(c4cccc(C)c4)CC3)cc2)c1	28.6 µM	30.6 µM	> 50 µM	2.35 µM
